Reference: patent EP3539969A1, “NOVEL PHOTO-INITIATORS AND THEIR APPLICATION” (ETH Zurich, priority 2018, dated 2019)
Structures can show the parent of a compound that is named as a salt. Where two headings read alike, the source gives them in different places.

How the values were obtained:
[1] = 25°C
Experimental: To determine the solubility, small samples of the respective substance were exactly weighed to Eppendorf tubes. Upon shanking at an Eppendorf thermomixer (25 C @ 1400 rpm), water is added until the whole samples was homogenously dissolved.

[2] = for ε405: λ = 405 nm
Experimental: To compare photobleaching, 0.25 mM solutions of ^PhBAPO-ONBu4 and ^MesBAPO-ONBu4 were prepared in THF. UV-Vis spectra were recorded in 2 mm quartz cuvettes prior and after 15 min of irradiation with 265 nm (Lumos 43 LED reactor, Atlas Photonics). Spectra have been smoothed (adjacent averaging, points of window: 5).

[3] = for irradiation time to complete photolysis: 405 nm LED, 80 mM in CD3CN, diphenyl disulfide (3 eq.)
Excerpt: The photolysis has been followed by ^31P NMR. […] The results are further illustrated by Fig. 2

[4] = for integral rel. to TPP / integral rel. to t = 0: protected from light
Experimental: To determine the stability of ^PhBAPO-ONBu4 against hydrolysis, 10 mg were dissolved in 0.6 mL of D2O in a NMR tube protected from light. […] Table 1: Integrals of 31P NMR signals of PhBAPO-ONBu4 relative to TPP as external standard for integration over time.

In the case of `Cc1cc(C)c(C(=O)P(=O)(O)C(=O)c2c(C)cc(C)cc2C)c(C)c1` [^MesBAPO-ONBu4, bis(mesitoyl)phosphinic acid tetrabutylammonium salt, reference compound], the solubility in water [1] is reported as 3.5 mg/mL, the “λmax (longest wave absorption)” value ([2]; THF) is reported as 373 nm and the ε ([2]; λ = 244 nm) is reported as 5935±72 Lmol^-1cm^-1. The ε ([2]; λ = 265 nm (LED wavelength)) was 3368±88 Lmol^-1cm^-1, the ε ([2]; λ = 359 nm) was 211±3 Lmol^-1cm^-1 and the ε ([2]; λ = 365 nm (LED wavelength)) was 216±4 Lmol^-1cm^-1. The ε405 [2] was 64 Lmol^-1cm^-1 and the “irradiation time to complete photolysis” value [3] was “over 12 min”.

For `O=C(c1ccccc1)P(=O)(O)C(=O)c1ccccc1` [^PhBAPO-ONBu4, bis(benzoyl)phosphinic acid tetrabutylammonium salt], the solubility in water [1] was 17.2 mg/mL, the half-life [4] was 51.4 days and the half time ([4]; hydrolysis in D2O) was 51 days. The “t1 (exponential fitting of the decay, y = e^-x/t1)” value ([4]; hydrolysis in D2O, over 84 days) was 74.2 ± 1.8 days, the “integral rel. to TPP” value ([4]; t = 0 d, 10 mg in 0.6 mL D2O) was 4.24 and the “integral rel. to t = 0” value ([4]; t = 0 d, D2O) was 1. For the same compound, the “integral rel. to TPP” value ([4]; t = 4 d, D2O) was 4.02, the “integral rel. to t = 0” value ([4]; t = 4 d, D2O) was 0.9481 and the “integral rel. to TPP” value ([4]; t = 5 d, D2O) was 4.02. For the same compound, the “integral rel. to t = 0” value ([4]; t = 5 d, D2O) was 0.9481, the “integral rel. to TPP” value ([4]; t = 14 d, D2O) was 3.46 and the “integral rel. to t = 0” value ([4]; t = 14 d, D2O) was 0.816. For the same compound, the “integral rel. to TPP” value ([4]; t = 29 d, D2O) was 2.98, the “integral rel. to t = 0” value ([4]; t = 29 d, D2O) was 0.7028 and the “integral rel. to TPP” value ([4]; t = 56 d, D2O) was 1.98. For the same compound, the “integral rel. to t = 0” value ([4]; t = 56 d, D2O) was 0.467, the “integral rel. to TPP” value ([4]; t = 84 d, D2O) was 1.31 and the “integral rel. to t = 0” value ([4]; t = 84 d, D2O) was 0.309. The photobleaching ([2]; 0.25 mM in THF, 15 min irradiation with 265 nm) was “only colourless photoproducts are formed”, the “red shift of λmax compared to ^MesBAPO-ONBu4” value ([2]; THF) was “about 20 nm” and the “λmax (longest wave absorption)” value ([2]; THF) was 394 nm. The ε ([2]; λ = 235 nm) was 16957±1372 Lmol^-1cm^-1, the ε ([2]; λ = 265 nm (LED wavelength)) was 3424±88 Lmol^-1cm^-1 and the ε ([2]; λ = 365 nm (LED wavelength)) was 106±2 Lmol^-1cm^-1. For the same compound, the ε ([2]; λ = 394 nm) was 171±4 Lmol^-1cm^-1, the ε405 [2] was 154 Lmol^-1cm^-1 and the “irradiation time to complete photolysis” value [3] was at most 6 min. For the same compound, the “photoactivity relative to ^MesBAPO-ONBu4” value ([3]; 405 nm irradiation) was “at least twice as photoactive as ^MesBAPO-ONBu4”.
